In US11000491B2, “Amino-aryl-benzamide compounds and methods of use thereof” (HEPANOVA, INC., priority 2017, dated 2021):
Like-named read-outs stand apart in the source and are kept apart here.

Experiments:
Assay type in all cases: cell-based
[1] = system: SREBP-1; assay: SREBP-1 expression in cultured primary human hepatocytes; conditions: procedure of Example 6, read-out: SREBP-1 mRNA inhibition (EC50)
Protocol: (§1) FIG. 9. Effects of HPN-01 on the expression of SREBP-1 (master regulator of hepatic glucose metabolism and fatty acid synthesis) and SREBP-2 (master regulator of cholesterol homeostasis in cells) in cultured primary human hepatocytes.
(§2) Cultured primary human hepatocytes were treated with various concentrations of HPN-01, and the expression levels of SREBP-1 (master regulator of hepatic glucose metabolism and fatty acid synthesis) and SREBP-2 (master regulator of cholesterol homeostasis in cells) were subsequently determined.
(§3) The ability of each HPN-01 derivative obtained from the synthesis methods described above, to inhibit SREBP-1 and SREBP-2 mRNA expression in primary hepatocytes, was tested using the procedure outlined in Example 6. The results of this analysis are shown in Table 6 (third and fourth columns).

[2] = system: SREBP-2; assay: SREBP-2 expression in cultured primary human hepatocytes; conditions: procedure of Example 6, read-out: SREBP-2 mRNA inhibition (EC50)
Protocol: as §1, §2, §3

[3] = system: Huh7 cells; assay: LD content in Huh7 cells pre-treated with insulin, Oil-Red-O staining, absorbance OD 540 nm; conditions: procedure of Example 3, read-out: LD content inhibition (EC50)
Protocol: FIG. 6. […] Spectrophotometric absorbance of untreated or HPN-01-treated Huh7 cells pre-incubated with 1 mM insulin is shown. LD contents were stained using Oil Red O, and measured by determining spectrophotometer absorbance under OD 540 nm.
Huh7 cells were mock treated or pre-treated with 1 mM insulin, and subsequently treated with indicated amounted of HPN-01.
The ability of each HPN-01 derivative obtained from the synthesis methods described above, to inhibit LD formation in hepatocytes, was tested using the procedure outlined in Example 3. The results of this analysis are shown below in Table 6 (second column).

[4] = Homo sapiens, Huh-7, Huh7 cells

EC50 ([3]; Huh7 cells)	EC50 [3, 4]	Compound	EC50 [1]	EC50 [2]	EC50 ([1]; Homo sapiens, Hepatocyte)	EC50 ([2]; Homo sapiens, Hepatocyte)
0.55 µM		2-amino-5-((4-fluorophenyl)ethynyl)-4′-sulfamoylbiphenyl-3-carboxamide [HPN-01203]	1.7 µM	2.1 µM		
1.3 µM		4-(4′-amino-4-bromo-4″-sulfamoyl-[1,1′:3′,1″-terphenyl]-5′-yl)piperazine-1-carboxamide [HPN-01624]	7.54 µM	13.5 µM		
1.11 µM		4′-(2-aminoacetamido)-4-chloro-4″-ureido-[1, 1′:3′,1″-terphenyl]-5′-carboxamide [HPN-01518]	2.92 µM	4.86 µM		
0.59 µM		4′-acetamido-4-chloro-4″-ureido-[1,1′:3′,1″-terphenyl]-5′-carboxamide [HPN-01505]	1.36 µM	2.41 µM		
0.48 µM		4′-butyramido-4-chloro-4″-sulfamoyl-[1,1′:3′,1″-terphenyl]-5′-carboxamide [HPN-01515]	0.95 µM	1.32 µM		
	0.46 µM	NC(=O)c1cc(/C=C/c2cccc(Cl)c2)cc(-c2ccc(S(N)(=O)=O)cc2)c1N [HPN-01102, (E)-2-amino-5-(3-chlorostyryl)-4′-sulfamoyl-[1,1′-biphenyl]-3-carboxamide]			1.61 µM	3.37 µM
	0.99 µM	NC(=O)c1cc(/C=C/c2cccc(Br)c2)cc(-c2ccc(S(N)(=O)=O)cc2)c1N [HPN-01103, (E)-2-amino-5-(3-bromostyryl)-4′-sulfamoyl-[1,1′-biphenyl]-3-carboxamide]			2.14 µM	3.08 µM
	0.67 µM	NC(=O)c1cc(/C=C/c2cccc(F)c2)cc(-c2ccc(S(N)(=O)=O)cc2)c1N [HPN-01104, (E)-2-amino-5-(3-fluorostyryl)-4′-sulfamoyl-[1,1′-biphenyl]-3-carboxamide]			2.08 µM	3.26 µM
	1.09 µM	CC(=O)Oc1ccc(/C=C/c2cc(C(N)=O)c(N)c(-c3ccc(S(N)(=O)=O)cc3)c2)cc1 [HPN-01105, (E)-4-(2-(6-amino-5-carbamoyl-4′-sulfamoyl-[1,1′-biphenyl]-3-yl)vinyl)phenyl acetate]			3.24 µM	5.26 µM
	2.85 µM	CC(=O)Nc1ccc(/C=C/c2cc(C(N)=O)c(N)c(-c3ccc(S(N)(=O)=O)cc3)c2)cc1 [HPN-01106, (E)-5-(4-acetamidostyryl)-2-amino-4′-sulfamoyl-[1,1′-biphenyl]-3-carboxamide]			6.35 µM	6.45 µM
	1.17 µM	NC(=O)c1cc(/C=C/c2ccc(Cl)cc2)cc(-c2ccc(S(N)(=O)=O)cc2)c1N [HPN-01107, (E)-2-amino-5-(4-chlorostyryl)-4′-sulfamoyl-[1,1′-biphenyl]-3-carboxamide]			5.66 µM	7.37 µM
	0.55 µM	NC(=O)c1cc(/C=C/c2ccccc2Cl)cc(-c2ccc(S(N)(=O)=O)cc2)c1N [HPN-01108, (E)-2-amino-5-(2-chlorostyryl)-4′-sulfamoyl-[1,1′-biphenyl]-3-carboxamide]			2.59 µM	4.67 µM
	1.37 µM	NC(=O)c1cc(/C=C/c2ccc(Br)cc2)cc(-c2ccc(S(N)(=O)=O)cc2)c1N [HPN-01109, (E)-2-amino-5-(4-bromostyryl)-4′-sulfamoyl-[1,1′-biphenyl]-3-carboxamide]			2.71 µM	4.46 µM
	0.81 µM	CC(=O)Oc1cccc(/C=C/c2cc(C(N)=O)c(N)c(-c3ccc(S(N)(=O)=O)cc3)c2)c1 [HPN-01110, (E)-3-(2-(6-amino-5-carbamoyl-4′-sulfamoyl-[1,1′-biphenyl]-3-yl)vinyl)phenyl acetate]			2.26 µM	3.6 µM
	0.75 µM	CCCC(=O)Oc1cccc(/C=C/c2cc(C(N)=O)c(N)c(-c3ccc(S(N)(=O)=O)cc3)c2)c1 [HPN-01111, (E)-3-(2-(6-amino-5-carbamoyl-4′-sulfamoyl-[1,1′-biphenyl]-3-yl)vinyl)phenyl butyrate]			2.08 µM	2.44 µM
	0.65 µM	CCCC(=O)Nc1cccc(/C=C/c2cc(C(N)=O)c(N)c(-c3ccc(S(N)(=O)=O)cc3)c2)c1 [HPN-01112, (E)-2-amino-5-(3-butyramidostyryl)-4′-sulfamoyl-[1,1′-biphenyl]-3-carboxamide]			2.03 µM	1.36 µM
	0.33 µM	NC(=O)c1cc(/C=C/C(=O)O)cc(-c2ccc(S(N)(=O)=O)cc2)c1N [HPN-01113, (E)-3-(6-amino-5-carbamoyl-4′-sulfamoyl-[1,1′-biphenyl]-3-yl)acrylic acid]			0.69 µM	0.97 µM
	2.35 µM	CCOC(=O)/C=C/c1cc(C(N)=O)c(N)c(-c2ccc(S(N)(=O)=O)cc2)c1 [HPN-01115, ethyl (E)-3-(6-amino-5-carbamoyl-4′-sulfamoyl-[1,1′-biphenyl]-3-yl)acrylate]			6.42 µM	5.99 µM
	1.01 µM	CC(C)OC(=O)/C=C/c1cc(C(N)=O)c(N)c(-c2ccc(S(N)(=O)=O)cc2)c1 [HPN-01116, isopropyl (E)-3-(6-amino-5-carbamoyl-4′-sulfamoyl-[1,1′-biphenyl]-3-yl)acrylate]			3.74 µM	5.01 µM
	0.84 µM	CCCCCCCOC(=O)/C=C/c1cc(C(N)=O)c(N)c(-c2ccc(S(N)(=O)=O)cc2)c1 [HPN-01118, heptyl (E)-3-(6-amino-5-carbamoyl-4′-sulfamoyl-[1,1′-biphenyl]-3-yl)acrylate]			2.34 µM	2.51 µM
	0.68 µM	NC(=O)c1cc(/C=C/C(=O)OCc2ccccc2)cc(-c2ccc(S(N)(=O)=O)cc2)c1N [HPN-01120, benzyl (E)-3-(6-amino-5-carbamoyl-4′-sulfamoyl-[1,1′-biphenyl]-3-yl)acrylate]			6.44 µM	5.1 µM
	2.14 µM	NC(=O)c1cc(/C=C/C(=O)Nc2ccc(C(=O)O)cc2)cc(-c2ccc(S(N)(=O)=O)cc2)c1N [HPN-01121, (E)-4-(3-(6-amino-5-carbamoyl-4′-sulfamoyl-[1,1′-biphenyl]-3-yl)acrylamido)benzoic acid]			6.59 µM	8.04 µM
	2.44 µM	NC(=O)c1cc(/C=C/C(=O)Nc2ccc(O)cc2)cc(-c2ccc(S(N)(=O)=O)cc2)c1N [HPN-01122, (E)-2-amino-5-(3-((4-hydroxyphenyl)amino)-3-oxoprop-1-en-1-yl)-4′-sulfamoyl-[1,1′-biphenyl]-3-carboxamide]			9.61 µM	7.29 µM
	0.89 µM	NC(=O)c1cc(/C=C/C(=O)OCCc2ccccc2)cc(-c2ccc(S(N)(=O)=O)cc2)c1N [HPN-01123, phenethyl (E)-3-(6-amino-5-carbamoyl-4′-sulfamoyl-[1,1′-biphenyl]-3-yl)acrylate]			3.45 µM	4.45 µM
	0.83 µM	Cc1ccc(NC(=O)/C=C/c2cc(C(N)=O)c(N)c(-c3ccc(S(N)(=O)=O)cc3)c2)cc1 [HPN-01126, (E)-2-amino-5-(3-oxo-3-(p-tolylamino)prop-1-en-1-yl)-4′-sulfamoyl-[1,1′-biphenyl]-3-carboxamide]			2.43 µM	4.54 µM

Compound	EC50 ([3]; Huh7 cells)	EC50 [3, 4]	EC50 [1]	EC50 [2]	EC50 ([1]; Homo sapiens, Hepatocyte)	EC50 ([2]; Homo sapiens, Hepatocyte)
2-amino-5-((3-chlorophenyl)ethynyl)-4′-sulfamoyl-[1,1′-biphenyl]-3-carboxamide [HPN-01206]	0.9 µM		1.68 µM	1.07 µM		
